The numbers were not newly measured in patent publication US7524883B2, “Eponemycin and epoxomicin analogs and uses thereof” (Eisai R&D Management Co., Ltd., priority 2002, dated 2009), which cites them from elsewhere.

The subject of this data set is 20S proteasome.

For the compound `CC[C@H](C)[C@H](NC(=O)[C@H]([C@@H](C)CC)N(C)C(C)=O)C(=O)N[C@H](C(=O)N[C@@H](CC(C)C)C(=O)[C@@]1(C)CO1)[C@@H](C)O` [Epoxomicin], the “binding to the 20S proteasome” value is “bind covalently and irreversibly”.

As to `C=C(C)C[C@H](NC(=O)[C@H](CO)NC(=O)CCCCC(C)C)C(=O)[C@@]1(CO)CO1` [Eponemycin], the “binding to the 20S proteasome” value is “bind covalently and irreversibly”.
